Laboratory results from patent EP0099121A2, “Pharmaceutical compositions” (Bristol-Myers Company, priority 1982, dated 1984).
Read-outs that look alike come from different tables or passages of the source.

Assays:
Gastric Acid Output = assay: Gastric antisecretory activity in the Gastric Fistula Rat (Table 2 title: Two-Hour Pylorus Ligated Rat); type: in vivo, Long Evans rats; details: numbers in parentheses are the 95% confidence limits
Procedure: Male Long Evans rats weighing about 240-260 grams at the time of cannula implantation are used. The design and implantation of the stainless steel cannula into the anterior wall of the fore-stomach are carried out essentially as described by Pare et al. [Laboratory Animal Science, 27, 244 (1977)]. The fistula components are designed and the operative procedure is carried out exactly as described in the above reference. Post operatively the animals are individually housed in solid bottom cages with sawdust and are allowed food and water ad libitum throughout the entire recovery period. Animals are not used for test purposes for at least 15 days after the operative procedure.
The animals are fasted but allowed water ad libitum for 20 hours before the testing procedure is to begin. Immediately prior to collection, the cannula is opened and the stomach washed gently with 30-40 mL of warm saline or distilled water to remove any residual contents. The catheter is then screwed into the cannula in place of the plugging screw and the rat is placed in a clear plastic rectangular cage measuring 40 cm long, 15 cm wide and 13 cm high. The bottom of the cage has a slit approximately 1.5 cm wide and 25 cm long running down the center to accommodate the catheter which hangs through it. In this way the rat is not restricted and can move freely about the cage during collection periods. The remainder of the assay is carried out as described by Ridley et al. [Research Comm. Chem. Path. Pharm., 17, 365 (1977)].
Gastric secretions collected during the first hour after washing the stomach are discarded as they may be contaminated. For oral evaluation, the catheter is then removed from the cannula and replaced with the plugging screw. Water (2 mL/kg) is administered orally via gastric intubation and the animal is returned to the cage for 45 minutes. After this time the plugging screw is removed and replaced with a catheter to which a small plastic vial has been attached to collect the gastric secretions. A two hour sample is collected (this represents the control secretion), the catheter removed and replaced with the plugging screw. The test drug is now administered orally in a volume of 2 mL/kg via gastric intubation. Forty-five minutes later the plugging screw is again removed, replaced with the catheter attached to a small plastic vial and another 2 hour sample is collected. The secretions in the second sample are compared to those of the control sample in order to determine the effects of the test drug.
When test compounds are to be evaluated parenterally, the animal is injected ip or sc with the test compound vehicle in a volume of 2 mL/kg immediately after discarding the initial 60 minute collection. A two hour sample is collected (control secretion) and the animals are injected either ip or sc with the test compound in a volume of 2 mL/kg. An additional two hour sample is collected and its secretions are compared to those of the control period to determing drug effects.
The samples are centrifuged in a graduated tube for volume determination. Titratable acidity is measured by titrating a one mL sample to pH 7.0 with 0.02N NaOH, using an Autoburet and an electrometric pH meter (Radiometer). Titratable acid output is calculated in microequivalents by multiplying the volume in milliliters by the acid concentration in milliequivalents per liter.
(§1) Results are expressed as percent inhibition relative to control readings. Dose response curves are constructed and ED values are calculated by regression analyses. At least three rats are used at each dosage level and a minimum of three dosage levels are utilized for determination of a dose response curve.

acid output = assay: Gastric antisecretory activity in the Heidenhain Pouch Dog; type: in vivo, dogs; details: for Potency Ratio (cimetidine = 1.0): oral
Procedure: Prior to surgery, hematology and blood chemistry profiles are obtained and an assessment made as to the general health of selected female dogs. Dogs are vaccinated with Tissue Vax 5 (DHLP - Pitman-Moore) and housed in general animal quarters for four weeks' observation so incipient diseases may become apparent. Dogs are fasted with water ad libitum 24 hours prior to surgery.
Anesthesia is induced with Sodium Pentothal (Abbott) 25-30 mg/kg iv. Subsequent anesthesia is maintained with methoxy- flurane (Pitman-Moore). A mid-line linea alba incision from xiphoid to umbilicus provides good exposure and ease of closure. The stomach is pulled up into the operative field, the greater curvature stretched out at multiple points and clamps placed along the selected line of incision. The pouch is made from the corpus of the stomach so that true parietal cell juice is obtained. About 30% of the corpus volume is resected. The cannula is made of light-weight, biologically-inert material such as nylon or Delrin with dimensions and attachments after DeVito and Harkins [J. Appl. Physiol., 14, 138 (1959)]. Post operatively, dogs are medicated with antibiotics and an analgesic. They are allowed 2-3 months for recovery. Experiments are carried out in the following way: Dogs are fasted overnight (~18 hours) with water ad libitum prior to each experiment. The dogs are placed in a sling and a saphenous vein cannulated for drug administration. Histamine as the base (100 ug/kg/hr) and chlorpheniramine maleate (0.25 mg/kg/hr) are infused continuously (in a volume of 6 mL/hr) with a Harvard infusion pump.
Ninety minutes' infusion are allowed for the dogs to reach a steady state of acid output. At this time the drug or normal saline (control) is administered concomitantly with the secretagogue in a volume of 0.5 mL/kg over a 30 second period. When oral studies are to be carried out, the drug is administered via gastric gavage in a volume of 5 mL/kg. Infusion of the secretagogue is continued and 15 minute samples of.the gastric juice are taken for 4.5 hours. Each sample is measured to the nearest 0.5 mL and titratable acidity is determined by titrating a 1 mL sample to pH 7.0 with 0.2N NaOH, using an Autoburet and an electrometric pH meter (Radiometer). Titratable acid output is calculated in microequivalents by multiplying the volume in milliliters by the acid concentration in milliequivalents per liter.
as §1, with “and ED50” for “and ED”, “analyses. From 3 to 5 dogs” for “analyses. At least three rats”, “each dose” for “each dosage”

gastric secretion [1] = assay: Inhibition of gastric secretion by the oral route, dog; type: in vivo
gastric secretion [2] = assay: Inhibition of gastric secretion by the oral route, rat; type: in vivo
gastric erosions = assay: HCl-induced gastric erosions in rats, pretreatment with compound alone or with pepstatin; type: in vivo, Long Evans rats; details: probit analysis
Procedure: Adult male, Long Evans rats weighing 280-300 g (Blue Spruce Farms, Alton, New York) were used. The animals were individually caged and food and water were removed 24 and 18 hours, respectively, prior to testing. On the following day, the test compound was administered orally to the animals 30 minutes before 1.0 mL of 0.75N HC1 was instilled into the stomach by gavage. Animals treated with the combination of the test compound and pepstatin received the test compound 30 minutes before, and a fixed amount of pepstatin (20 mg/kg po) 10 minutes before, the hydrochloric acid was administered. […] One hour after receiving the HC1 solution, the animals were sacrificed with an intraperitoneal injection of 0.2 mL of T-6r-, a euthanasia solution (National Laboratories Corp.).
The stomachs were photographed with a Polaroid" Close Up camera (Polaroid Corporation) and scoring was determined from the photographs. For scoring purposes, only those erosions with a minimum length of 1 mm were considered. The severity of gastric ulceration was defined for each animal as the sum of the maximum continuous lengths (in mm) of the erosions satisfying the above criteria. […]
Data were analyzed using the t-test for unpaired data and ED50 values were calculated from the dose response data using probit analysis [Finney, Probit Analysis, 3rd ed., University Press, Cambridge, England (1971)]. […]

ulcer formation = details: two or more days of pretreatment, single agent; cited from earlier work
gastric acid secretion = details: normal volunteers and patients with duodenal ulcer; cited from earlier work
pepsin = details: gastric ulcer; cited from earlier work
[3] = Rattus norvegicus, ip, Route of Administration i.p., read-out: ED50
[4] = Rattus norvegicus, sc, Route of Administration s.c., read-out: ED50

| Molecule | Potency Ratio (cimetidine = 1.0) (acid output) | ED50 (Gastric Acid Output; [4]) [µmol/kg] | other results |
| --- | --- | --- | --- |
| CN(C)Cc1ccc(CSCCNC2=NS(=O)(=O)N=C2NCCSCc2ccc(CN(C)C)o2)o1 [11 B] | 11 |  | ED50 (Gastric Acid Output; Route of Administration i.p.): 0.69 (0.31-1.33) μmoles/kg |
| NC1=NS(=O)(=O)N=C1NCCCOc1cccc(CN2CCCC2)c1 [146 a] | ~20 |  | ED50 (Gastric Acid Output; Route of Administration s.c.): 0.023 (0.0091-0.046) μmoles/kg |
| CCNC1=NS(=O)(=O)N=C1NCCSCc1ccc(CN(C)C)o1 [Example 12, 3-{2-[(5-Dimethylaminomethyl-2-furyl)methylthio]ethyl-amino]-4-ethylamino-1,2,5-thiadiazole 1,1-dioxide] | 10 |  | ED50 (Gastric Acid Output; [3]): 0.28 µmol/kg |
| CNc1n[s+]([O-])nc1NCCSCc1ccc(CN(C)C)o1 (centres unmarked) [Example 18, 3-{2-[(5-Dimethylaminomethyl-2-furyl)methylthio]ethylamino}-4-methylamino-1,2,5-thiadiazole 1-oxide] | 18 | 0.38 |  |
| CNC1=NS(=O)(=O)N=C1NCCSCc1csc(NC(=N)N)n1 [Example 31, 3-{2-[(2-Guanidinothiazol-4-yl)methylthio)ethylamino}-4-methylamino-1,2,5-thiadiazole 1,1-dioxide] | 13 |  | ED50 (Gastric Acid Output; [3]): 0.41 µmol/kg |
| NC(N)=Nc1nc(CSCCNC2=NS(=O)(=O)N=C2N)cs1 [Example 35, 3-Amino-4-{2-[(2-guanidinothiazol-4-yli)methylthio]ethyl-amino}-1,2,5-thiadiazole 1,1-dioxide] | 20 | 0.08 |  |
| CNC1=NS(=O)(=O)N=C1NCCSCc1ccc(CN(C)C)s1 [Example 65, 3-{2-[(5-Dimethylaminomethyl-2-thienyl)methylthio]ethyl-amino}-4-methylamino-1,2,5-thiadiazole 1,I-dioxide] | 10 | 0.07 |  |
| CN(C)Cc1cccc(OCCCNc2n[s+]([O-])nc2N)c1 (centres unmarked) [Example 118, 3-Amino-4-[3-(3-dimethylaminomethylphenoxy)propylamino]-1,2,5-thiadiazole 1-oxide] | 10 | 0.066 |  |
| CN(C)Cc1ccc(CSCCNC2=NS(=O)(=O)N=C2NCc2ccc3c(c2)OCO3)s1 [Example 135, 3-{2-[(5-Dimethylaminomethyl-2-thienyl)methylthio]ethylamino}-4-(3,4-methylenedioxybenzylamino)-1,2,5-thiadiazole 1,1-dioxide] |  | 0.57 |  |
| [O-][s+]1nc(NCCCOc2cccc(CN3CCCCC3)c2)c(NCc2cccnc2)n1 (centres unmarked) [Example 149, 3-[(3-Pyridyl)methylamino]-4-[3-(3-piperidinomethylphenoxy)-proavlamino]-1,2,5-thiadiazole1-oxide] | 10 | ~0.08 |  |
| Nc1n[s+]([O-])nc1NCCSCc1ccc(CN2CCCCC2)o1 (centres unmarked) [Example 151, 3-Amino-4-{2-.[(5-piperidinomethyl-2-furyl)methylthio]-ethylamino)-1,2,5-thiadiazole 1-oxide] |  | 0.9 |  |
| CNC(=C[N+](=O)[O-])NCCSCc1ccc(CN(C)C)o1 [Ranitidine, ranitidine] |  |  | times as potent as cimetidine as an inhibitor of gastric secretion (gastric secretion [1]): ~6 times; times as potent as cimetidine as an inhibitor of gastric secretion (gastric secretion [2]): about 4 times; ED50 (gastric erosions; Rattus norvegicus, po, compound alone, orally 30 minutes before 1.0 mL of 0.75N HCl, read-out: ED50 (mg/kg) for Inhibition of Ulcer Formation Alone): 123 mg/kg; ED50 (mg/kg) for Inhibition of Ulcer Formation with Pepstatin (gastric erosions; compound orally 30 minutes before and pepstatin 20 mg/kg po 10 minutes before HCl): 104 mg/kg |
| CC1(C)[C@@H](OC(=O)CCC(=O)O)CC[C@]2(C)[C@H]3C(=O)C=C4[C@@H]5C[C@@](C)(C(=O)O)CC[C@]5(C)CC[C@@]4(C)[C@]3(C)CC[C@@H]12 [carbenoxolone] |  |  | ulcer formation (ulcer formation): significantly decreased ulcer formation |
| CN/C(=N/CCSCc1nc[nH]c1C)NC#N [cimetidine] |  |  | basal and stimulated gastric acid secretion (gastric acid secretion): antagonize both basal and stimulated gastric acid secretion; ulcer formation (ulcer formation): significantly decreased ulcer formation; ED50 (acid output; Canis lupus familiaris, po, read-out: oral ED50): ~3.3 µmol/kg |
| sucralfate |  |  | benefit in patients with gastric ulcer (pepsin): none |
